The source of these data is patent US20120045393A1 (priority 2009, published 2012).

The Kd is the constant that tells how readily two partners part at equilibrium. As usually defined, the EC50 is the concentration giving half of the maximal effect.

Like-named read-outs stand apart in the source and are kept apart here. Non-standard residues stand in square brackets, D forms with d. Primed or numbered codes have the meaning given here. DO3A10CM(3) = metal chelator group attached at the N-terminus (X in table rows); DO3A10CM″ = chelating group at the N-terminus (X in the sequence tables); Bpa = N[C@@H](Cc1ccc(C(=O)c2ccccc2)cc1)C(=O)O; d2Nal = N[C@H](Cc1ccc2ccccc2c1)C(=O)O; DO3A10CM = not defined here; Tha = not defined here; azaGly = NNC(=O)O; Sar = CNCC(=O)O

Data set [1] can be described thus: liver homogenate. The note with it: female Tac:NCr:Foxn1^nu/nu mice, 37° C., up to 60 min.
The test system of data set [2] is EFO-27 cells. As to the kind of experiment: Internalization/efflux studies in EFO-27 cells. It counts as cell-based, human. The note with it: for Cell associated activity at 0 h % Intern / Cell associated activity at 2 h % Intern: internalized; for Cell associated activity at 0 h % Memb / Cell associated activity at 2 h % Memb: membrane bound; for Bound %: of added; for Bound: per well. As to the method:
(§1) Internalization/Efflux Studies: The internalization and efflux studies were carried out following the general procedure. Basically, ^177Lu-LHRH II or ^125I-LHRH II ([^125I-Tyr^8]BRU-2477) (75 uL, 3.0 μCi/mL) was added to the EFO-27 or PC-3 cells. The cells were incubated for 40 min at 37° C. The unbound radioactivity was washed off (4×). Following addition of fresh medium, the cells were further incubated for up to 2 h. At various time points (15, 30, 60 & 120 min) the distribution of radioactivity (membrane-bound, internalized, and efflux) was determined
The internalization and efflux of several Lu-177 labeled LHRH II analogs in EFO-27 cells have been investigated. Basically, following pre-incubation of cells with ^177Lu-LHRH II samples, the binding buffer containing the ^177Lu was replaced with fresh media without complex. The extent of initial internalization (T=0), the amount of radioactive material that remained internalized and the efflux at 0-120 min were determined. The results are shown in FIGS. 21a-f and 22a-c and in Table 25.

In data set [3] the test system is EFO-27 human ovarian cancer cells (LHRH binding sites). Kind of data set: Saturation binding of radiolabeled LHRH-II analogs to EFO-27 cells. On the procedure: Saturation binding of ^125I-LHRH II and the ^177Lu-labeled LHRH II analog ^177Lu-BRU-2666 to EFO-27 cells was carried out to determine the binding affinity, binding capacity (Bmax) and receptor numbers. The data were analyzed for a single binding site using Prizm software.

Data set [4] has as its system PC-3 (human prostate cancer) cells. As to the kind of experiment: Internalization/efflux studies in PC-3 cells. In kind it is cell-based. Also on record: Cell associated activity at 2 h % Efflux / Cell associated activity at 0 h % Memb / Cell associated activity at 2 h % Memb: concentration or dose not given beside the values. As to the method:
as §1
To determine whether prostate cancer cells (PC-3) behave differently from EFO-27 cells, internalization and efflux studies were carried out with ^177Lu-BRU-2813 using both cell lines.

For data set [5], the system named is LHRH binding sites on human ovarian cancer cells (EFO-27).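 Also: Cell-associated radioactivity on confluent EFO-27 monolayers in 96-well plates, measured by microplate scintillation counting.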
Data set [6] addresses T1, LHRH binding sites on EFO-27 human ovarian cancer cells (human).
T1 chain: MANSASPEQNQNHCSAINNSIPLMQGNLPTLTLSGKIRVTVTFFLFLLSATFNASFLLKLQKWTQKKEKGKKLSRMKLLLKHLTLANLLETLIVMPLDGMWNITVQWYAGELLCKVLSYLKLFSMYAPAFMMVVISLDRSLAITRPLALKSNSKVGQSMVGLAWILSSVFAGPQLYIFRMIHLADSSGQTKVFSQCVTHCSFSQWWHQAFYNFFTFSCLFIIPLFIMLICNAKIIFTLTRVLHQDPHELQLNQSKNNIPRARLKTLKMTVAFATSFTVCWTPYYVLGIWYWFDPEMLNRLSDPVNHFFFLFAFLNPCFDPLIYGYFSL
As to the kind of experiment: competition with [125I-Tyr8]BRU-2477 on EFO-27 cells.

Data set [7] deals with T1, LHRH binding sites (presumed LHRH …). Described as above.
For data set [8] the target is unchanged. The data set is described as above.
[9] abbreviates: saturation binding, single binding site.

Consider “pGlu-His-Trp-Ser-His-Darg-Trp-Tyr-Ampc4-azaGly-NH2”, for which the not cleaved in data set [1] is recorded as 100 ± 0 % remaining after 60 min; no metabolism.
For “DO3A10CM-Dnal2-Arg-Trp-Ser-His-Darg-Trp-Bpa4-Ampt4-azaGly-NH2”, the not cleaved in data set [1] is given as 98.7 ± 0.1 % remaining after 60 min; no metabolism was observed.
The same measure, in the same setting: the result for “pGlu-His-Trp-Ser-His-Darg-Trp-Tyr-Ψ(CH2N)-Pro-azaGly-NH2” reads 100 ± 0 % remaining after 60 min; no metabolism; that for “DO3A10CM-Dnal2-Arg-Trp-Ser-His-Darg-Trp-Bpa4-Ψ(CH2N)Pro-azaGly-NH2”, 100 ± 0 % remaining after 60 min; no metabolism was observed.
Turning to “DO3A10CM-Dnal2-Arg-Trp-Ser-His-Darg-Trp-Bpa4-Aze-azaGly-NH2”, the fragment found result in data set [1] was “lutetium complex of BRU-3064 (DO3A10CM-Dnal2-Arg-Trp-Ser-His-Darg-Trp-Bpa-OH)”.
Consider `N=C(N)NCCC[C@@H](NC(=O)[C@H](Cc1c[nH]cn1)NC(=O)[C@H](CO)NC(=O)[C@H](Cc1c[nH]c2ccccc12)NC(=O)[C@H](Cc1c[nH]cn1)NC(=O)[C@@H]1CCC(=O)N1)C(=O)N[C@@H](Cc1c[nH]c2ccccc12)C(=O)N[C@@H](Cc1ccc(O)c(I)c1)C(=O)N1CCC[C@H]1C(=O)NNC(N)=O` [125I-LHRH II, Darg^6,^125I-Tyr^8,azaGly^10-LHRH-II, reference compound], for which, in data set [2], the “Cell associated activity at 0 h % Efflux” value came out at 19%, the “Cell associated activity at 0 h % Intern” value stood at 36.7%, the “Cell associated activity at 0 h % Memb” value is 44.6% and the “Cell associated activity at 2 h % Efflux” value was 87.1%. Besides, in data set [2], the “Cell associated activity at 2 h % Intern” value came out at 4.9%, the “Cell associated activity at 2 h % Memb” value is recorded as 3.5%, the Bound % worked out at 1.20% and the Bound came to 1.87 fmol. Also, in data set [2] (% of total bound (cell-associated) radioactivity, T=0), the initial internalization came to 35.6%. Further, the receptor numbers in data set [3] is 85×10^6 /cell. In addition, in data set [3] (setting [9]), binding was characterised by a dissociation constant (Kd) of 1290 nM, the “Max. binding (Bmax)” value is reported as 141 pmoles/10^6 cells and the Receptors/cell is 85 ×10^6. In data set [3] (single binding site), the Kd is 1290 nM and the “binding capacity (Bmax)” value turned out to be 141 pmoles/million cells.
As for “DO3A10CM-Dnal2-Arg-Trp-Ser-His-Darg-Trp-Bpa4-Thz-azaGly-NH2”, in data set [1], the not cleaved is reported as 98.5 ± 0.2 % remaining after 60 min; no metabolism was observed.
Turning to `N=C(N)NCCC[C@H](NC(=O)[C@@H](Cc1ccc2ccccc2c1)NC(=O)CN1CCN(CC(=O)O)CCN(CC(=O)O)CCN(CC(=O)O)CC1)C(=O)N[C@@H](Cc1c[nH]c2ccccc12)C(=O)N[C@@H](CO)C(=O)N[C@@H](Cc1cnc[nH]1)C(=O)N[C@H](CCCNC(=N)N)C(=O)N[C@@H](Cc1c[nH]c2ccccc12)C(=O)N[C@@H](Cc1ccc(C(=O)c2ccccc2)cc1)C(=O)N1CCC[C@H]1C(=O)NNC(N)=O` [BRU-2813, DO3A10CM-Dnal2-Arg-Trp-Ser-His-Darg-Trp-Bpa-Pro-azaGly-NH2], the “Cell associated activity at 0 h % Efflux” value in data set [2] is given as 8.8%; in data set [4] (0 h) it was 12.5%. Further, the “Cell associated activity at 0 h % Intern” value in data set [2] was 24.1%; in data set [4] (0 h, internalized), 26.2%. For the same molecule, the “Cell associated activity at 0 h % Memb” value in data set [2] was 66.8%; in data set [4] (0 h, membrane bound) it was 61.9%. For the same molecule, the “Cell associated activity at 2 h % Efflux” value is 75.3% in data set [2] and 75.7% in data set [4] (2 h). Besides, the “Cell associated activity at 2 h % Intern” value in data set [2] turned out to be 7.4%; in data set [4] (2 h, internalized) it was 7.5%. Besides, the “Cell associated activity at 2 h % Memb” value in data set [2] is 17.3%; in data set [4] (2 h, membrane bound) it was 16.8%. Also, the values for the Bound % in data set [2] and in data set [4] (of added) were 19.10% and 19.26%, respectively. Further, the Bound in data set [2] stood at 40.5 fmol; in data set [4] (per well), 44.3 fmol. In data set [5] (BRU-2813 vs BRU-2666, BRU-2964 vs BRU-2813), the “more potency than the comparator analog” value came to 30%. The EC50 amounted to 330 nM in data set [5] (EFO-27 cells, competition with [125I-Tyr8]BRU-2477, 90 min) and 420 nM in data set [5] (Table 19: analogs used in the stabilization studies).
On to “DO3A10CM-Dnal2-Arg-Trp-Ser-His-Darg-Trp-Bpa4-Flp4-azaGly-NH2”, for which the fragment found result in data set [1] was “lutetium complex of BRU-3064 (DO3A10CM-Dnal2-Arg-Trp-Ser-His-Darg-Trp-Bpa-OH)”.
The same measure, in the same setting: the result for “DO3A10CM-Dnal2-Arg-Trp-Ser-His-Darg-Trp-Bpa4-Pip-azaGly-NH2” reads “Lu-DO3A10CM-Dnal2-Arg-Trp-Ser-His-Darg-Trp-Bpa4-Pip-OH”.

B1: BRU-2795 (peptide)
peptide: GGHWSHXWXPX
modifications: DO3A10CM-Gly (linker) on N-terminus; AA6 Darg; AA8 Bpa4; AA10 azaGly-NH2
notes: AA1 Gly
Regarding B1, it took 1370 nM to reach a half-maximal effect in data set [6] (EC50).

B2: BRU-2956 (peptide)
peptide: XRWNHXWXPX
modifications: DO3A10CM on N-terminus; AA1 Dnal2; AA6 Darg; AA8 Bpa4; AA10 azaGly-NH2
notes: AA4 Asn
With B2, in data set [7], a half-maximal effect (EC50) was put at 280 nM.

B3: BRU-3028 (peptide)
peptide: DO3A10CM-[d2Nal]RWSA[dR]W[Bpa]P[azaGly]-NH2
modifications: reading uncertain
notes: AA5 Ala
In data set [8], B3 registered an EC50 of 1090 nM.

B4: BRU-2740 (peptide)
peptide: {DO3A10CM″}-[Sar]WS[Tha][dR]W[Bpa]P[azaGly]-NH2
modifications: reading uncertain
In data set [8], B4 gave a 50% effective concentration (EC50) of 5530 nM.

B5: BRU-2954 (peptide)
peptide: DO3A10CM-[d2Nal]RWDH[dR]W[Bpa]P[azaGly]-NH2
modifications: reading uncertain
notes: AA4 Asp
For B5, the EC50 in data set [7] was found to be 4200 nM.

B6: BRU-3114 (peptide)
peptide: DO3A10CM-[d2Nal]RWWH[dR]W[Bpa]P[azaGly]-NH2
modifications: reading uncertain
notes: AA4 Trp
With B6, in data set [7], the midpoint of the response, the EC50, lay at 11500 nM.

B7: BRU-2871 (peptide)
peptide: DO3A10CM-[Sar]KWSH[dR]W[Bpa]P[azaGly]-NH2
modifications: reading uncertain
notes: AA2 Lys
On to B7, for which, in data set [6], the midpoint of the response, the EC50, lay at 10000 nM.

B8: BRU-3050 (peptide)
peptide: RRWSHXWXPX
modifications: DO3A10CM on N-terminus; AA6 Darg; AA8 Bpa4; AA10 azaGly-NH2
notes: AA1 Arg, AA2 Arg
In data set [6], B8 registered an EC50 of 310 nM.

B9: BRU-3113 (peptide)
peptide: DO3A10CM-[d2Nal]RWLH[dR]W[Bpa]P[azaGly]-NH2
modifications: reading uncertain
notes: AA4 Leu
With B9, in data set [7], the EC50 came out at 1130 nM.

B10: BRU-2670 (peptide)
peptide: {DO3A10CM(3)}-[Sar]HWSY[dR]L[Bpa]P[azaGly]-NH2
notes: AA5 Tyr, AA7 Leu
In data set [8], B10 displayed an EC50 of 8840 nM.

B11: BRU-2735 (peptide)
peptide: FHWSHXWXPX
modifications: DO3A10CM on N-terminus; AA6 Darg; AA8 Bpa4; AA10 azaGly-NH2
notes: AA1 Phe
As to B11, the response in data set [6] was half-maximal at 1140 nM (EC50).

B12: BRU-2814 (peptide)
peptide: DO3A10CM-[Sar]YWSH[dR]W[Bpa]P[azaGly]-NH2
modifications: reading uncertain
notes: AA2 Tyr
In the case of B12, the EC50 in data set [6] amounted to 2240 nM.

B13: BRU-2738 (peptide)
peptide: XFWSHXWXPX
modifications: DO3A10CM on N-terminus; AA1 Sar; AA6 Darg; AA8 Bpa4; AA10 azaGly-NH2
notes: AA2 Phe
With B13, a half-maximal effect in data set [6] (EC50) was put at 1220 nM.

B14: BRU-2668 (peptide)
peptide: {DO3A10CM(3)}-[Sar]HWSY[dR]W[Bpa]P[azaGly]-NH2
notes: AA5 Tyr
For the molecule B14, the 50% effective concentration (EC50) in data set [8] came out at 3470 nM.

B15: BRU-2964 (peptide)
peptide: DO3A10CM-[d2Nal]RWMH[dR]W[Bpa]P[azaGly]-NH2
modifications: reading uncertain
notes: AA4 Met
B15 returned an EC50 in data set [7] of 220 nM.

B16: BRU-2733 (peptide)
peptide: GHWSHXWXPX
modifications: DO3A10CM on N-terminus; AA6 Darg; AA8 Bpa4; AA10 azaGly-NH2
notes: AA1 Gly
Consider B16, for which, in data set [6], the EC50 is 1180 nM.

B17: BRU-3029 (peptide)
peptide: DO3A10CM-[d2Nal]RWSL[dR]W[Bpa]P[azaGly]-NH2
modifications: reading uncertain
notes: AA5 Leu
Turning to B17, in data set [8], the response was half-maximal at 1210 nM (EC50).

B18: BRU-2667 (peptide)
peptide: {DO3A10CM(3)}-GPHWSH[dR]W[Bpa]P[azaGly]-NH2
notes: AA1 Pro
For B18, in data set [6], a half-maximal effect (EC50) was put at 7290 nM.
